Laboratory results published in PubChem BioAssay (NCI).
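48-hour exposure; five concentrations; linearly interpolated endpoints. At the TGI there is no net growth.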

Experiments:
Assay in all cases: DTP human tumour cell line panel, 48 h
M14 melanoma = test system: M14 melanoma
SK-MEL-2 melanoma = test system: SK-MEL-2 melanoma
OVCAR-4 ovarian = test system: OVCAR-4 ovarian
OVCAR-8 ovarian = test system: OVCAR-8 ovarian
HT29 colon = test system: HT29 colon
DU-145 prostate = test system: DU-145 prostate
U251 CNS = test system: U251 CNS
TK-10 renal = test system: TK-10 renal
KM12 colon = test system: KM12 colon
PC-3 prostate = test system: PC-3 prostate
HOP-62 NSCLC = test system: HOP-62 NSCLC
UACC-257 melanoma = test system: UACC-257 melanoma
NCI-H226 lung = test system: NCI-H226 lung
HOP-92 NSCLC = test system: HOP-92 NSCLC
SK-MEL-28 melanoma = test system: SK-MEL-28 melanoma
786-0 renal = test system: 786-0 renal
RPMI-8226 leukemia = test system: RPMI-8226 leukemia
MDA-MB-435 = test system: MDA-MB-435
SF-268 CNS = test system: SF-268 CNS
NCI/ADR-RES ovarian = test system: NCI/ADR-RES ovarian
IGROV1 ovarian = test system: IGROV1 ovarian
OVCAR-5 ovarian = test system: OVCAR-5 ovarian
UO-31 renal = test system: UO-31 renal
HCT-116 colon = test system: HCT-116 colon
MDA-N = test system: MDA-N
A549 NSCLC = test system: A549 NSCLC
K-562 leukemia = test system: K-562 leukemia
A498 renal = test system: A498 renal
SK-MEL-5 melanoma = test system: SK-MEL-5 melanoma
SNB-19 CNS = test system: SNB-19 CNS
HCC-2998 colon = test system: HCC-2998 colon
SR leukemia = test system: SR leukemia
HL-60(TB) leukemia = test system: HL-60(TB) leukemia
ACHN renal = test system: ACHN renal
SK-OV-3 ovarian = test system: SK-OV-3 ovarian
CAKI-1 renal = test system: CAKI-1 renal
HCT-15 colon = test system: HCT-15 colon
COLO 205 colon = test system: COLO 205 colon
SF-539 CNS = test system: SF-539 CNS
HS 578T breast = test system: HS 578T breast
SW-620 colon = test system: SW-620 colon
SNB-75 CNS = test system: SNB-75 CNS
CCRF-CEM leukemia = test system: CCRF-CEM leukemia
EKVX NSCLC = test system: EKVX NSCLC
OVCAR-3 ovarian = test system: OVCAR-3 ovarian
NCI-H23 lung = test system: NCI-H23 lung
UACC-62 melanoma = test system: UACC-62 melanoma
LOX IMVI melanoma = test system: LOX IMVI melanoma
NCI-H522 lung = test system: NCI-H522 lung
SF-295 CNS = test system: SF-295 CNS
RXF 393 renal = test system: RXF 393 renal
MALME-3M melanoma = test system: MALME-3M melanoma
MCF7 breast = test system: MCF7 breast
T-47D breast = test system: T-47D breast
MOLT-4 leukemia = test system: MOLT-4 leukemia
NCI-H460 lung = test system: NCI-H460 lung

SMILES: CN(C)c1ccc(/C=c2/c3ccccc3n3c2cc(-c2ccccc2)[n+]3C)cc1
- TGI (M14 melanoma): 1440 nM
- TGI (SK-MEL-2 melanoma): 0.573 µM
- TGI (OVCAR-4 ovarian): 2100 nM
- TGI (OVCAR-8 ovarian): 0.567 µM
- TGI (HT29 colon): 908 nM
- TGI (DU-145 prostate): 1920 nM
- TGI (U251 CNS): 1.15 µM
- TGI (TK-10 renal): 4.53 µM
- TGI (KM12 colon): 694 nM
- TGI (PC-3 prostate): 1040 nM
- TGI (HOP-62 NSCLC): 1.12 µM
- TGI (UACC-257 melanoma): 1880 nM
- TGI (NCI-H226 lung): 1070 nM
- TGI (HOP-92 NSCLC): 1.01 µM
- TGI (SK-MEL-28 melanoma): 1870 nM
- TGI (786-0 renal): 1.34 µM
- TGI (RPMI-8226 leukemia): 488 nM
- TGI (MDA-MB-435): 1120 nM
- TGI (SF-268 CNS): 1.08 µM
- TGI (NCI/ADR-RES ovarian): > 100 µM
- TGI (IGROV1 ovarian): 819 nM
- TGI (OVCAR-5 ovarian): 2190 nM
- TGI (UO-31 renal): 2350 nM
- TGI (HCT-116 colon): 1.32 µM
- TGI (MDA-N): 1220 nM
- TGI (A549 NSCLC): 2040 nM
- TGI (K-562 leukemia): > 100 µM
- TGI (A498 renal): 4.38 µM
- TGI (SK-MEL-5 melanoma): 380 nM
- TGI (SNB-19 CNS): 1.28 µM
- TGI (HCC-2998 colon): > 100 µM
- TGI (SR leukemia): 658 nM
- TGI (HL-60(TB) leukemia): 123 nM
- TGI (ACHN renal): 2.33 µM
- TGI (SK-OV-3 ovarian): 2000 nM
- TGI (CAKI-1 renal): 7.65 µM
- TGI (HCT-15 colon): 3.06 µM

SMILES: COc1ccc(C2=C(Cl)C(=O)O/C2=C\c2ccc(OC)c(Br)c2)cc1Cl
- TGI (M14 melanoma): > 100000 nM
- TGI (SK-MEL-2 melanoma): 60.2 µM
- TGI (OVCAR-4 ovarian): > 100000 nM
- TGI (OVCAR-8 ovarian): 51.8 µM
- TGI (HT29 colon): > 100000 nM
- TGI (DU-145 prostate): > 100000 nM
- TGI (U251 CNS): 36.6 µM
- TGI (COLO 205 colon): > 100 µM
- TGI (SF-539 CNS): 30.6 µM
- TGI (TK-10 renal): 38.3 µM
- TGI (KM12 colon): > 100000 nM
- TGI (PC-3 prostate): > 100000 nM
- TGI (HOP-62 NSCLC): 30.8 µM
- TGI (UACC-257 melanoma): > 100000 nM
- TGI (HS 578T breast): > 100 µM
- TGI (HOP-92 NSCLC): 49.9 µM
- TGI (SW-620 colon): > 100 µM
- TGI (SK-MEL-28 melanoma): > 100000 nM
- TGI (786-0 renal): 39.1 µM
- TGI (RPMI-8226 leukemia): > 100000 nM
- TGI (SNB-75 CNS): > 100 µM
- TGI (MDA-MB-435): > 100000 nM
- TGI (CCRF-CEM leukemia): 79.2 µM
- TGI (SF-268 CNS): 38 µM
- TGI (NCI/ADR-RES ovarian): 88.6 µM
- TGI (IGROV1 ovarian): > 100000 nM
- TGI (OVCAR-5 ovarian): > 100000 nM
- TGI (UO-31 renal): > 100000 nM
- TGI (HCT-116 colon): 53.1 µM
- TGI (MDA-N): > 100000 nM
- TGI (A549 NSCLC): > 100000 nM
- TGI (K-562 leukemia): > 100 µM
- TGI (EKVX NSCLC): 90.8 µM
- TGI (OVCAR-3 ovarian): 47 µM
- TGI (A498 renal): 52.9 µM
- TGI (SK-MEL-5 melanoma): > 100000 nM
- TGI (SNB-19 CNS): 80.6 µM
- TGI (NCI-H23 lung): 32 µM
- TGI (HCC-2998 colon): > 100 µM
- TGI (SR leukemia): > 100000 nM
- TGI (UACC-62 melanoma): 74.9 µM
- TGI (LOX IMVI melanoma): > 100 µM
- TGI (HL-60(TB) leukemia): > 100000 nM
- TGI (NCI-H522 lung): 57.5 µM
- TGI (SF-295 CNS): 35.1 µM
- TGI (RXF 393 renal): 46.3 µM
- TGI (ACHN renal): 40.2 µM
- TGI (MALME-3M melanoma): > 100 µM
- TGI (MCF7 breast): 46.9 µM
- TGI (T-47D breast): > 100 µM
- TGI (SK-OV-3 ovarian): > 100000 nM
- TGI (CAKI-1 renal): > 100 µM
- TGI (HCT-15 colon): > 100 µM
- TGI (MOLT-4 leukemia): > 100 µM
- TGI (NCI-H460 lung): > 100 µM
